From PubChem BioAssay AID248 (DTP/NCI, 2004)
Where “and” joins values, the source holds several entries; their conditions need not be identical. Identical values can stand only once. Toxic doses and inconclusive results are not listed. Cut-off read from the data, not from the text of the source: active = T/C of 150% or more; inactive = T/C below 125%.

Tested on: L1210 leukemia ip in BDF1 mice, survival T/C
Assay: NCI In Vivo Anticancer Drug Screen. Data for tumor model L1210 Leukemia (intraperitoneal) in B6D2F1 (BDF1) mice
Details: endpoint: mean survival time, higher = longer survival
Summary of the method: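 Antitumor effect is assessed in tumor-bearing animals. Survival in the compound arm is compared with a vehicle-dosed control arm and expressed as their quotient.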

[1] = dose: 100.0 mg/kg/injection, schedule: Q01DX001 (ip), vehicle: carboxymethylcellulose (CMC)
[2] = dose: 200.0 mg/kg/injection, schedule: Q01DX001 (ip), vehicle: carboxymethylcellulose (CMC)
[3] = dose: 400.0 mg/kg/injection, schedule: Q01DX001 (ip), vehicle: carboxymethylcellulose (CMC)
[4] = dose: 100.0 mg/kg/injection, schedule: Q04DX002 (ip), vehicle: other
[5] = dose: 200.0 mg/kg/injection, schedule: Q04DX002 (ip), vehicle: other
[6] = dose: 400.0 mg/kg/injection, schedule: Q04DX002 (ip), vehicle: other
[7] = dose: 100.0 mg/kg/injection, schedule: Q04DX003 (ip), vehicle: saline
[8] = dose: 200.0 mg/kg/injection, schedule: Q04DX003 (ip), vehicle: saline
[9] = dose: 100.0 mg/kg/injection, schedule: Q01DX001 (ip), vehicle: saline
[10] = dose: 200.0 mg/kg/injection, schedule: Q01DX001 (ip), vehicle: saline
[11] = dose: 400.0 mg/kg/injection, schedule: Q01DX001 (ip), vehicle: saline
[12] = dose: 100.0 mg/kg/injection, schedule: Q04DX003 (ip), vehicle: Klucel (hydroxypropylcellulose) (HPC)
[13] = dose: 400.0 mg/kg/injection, schedule: Q04DX003 (ip), vehicle: Klucel (hydroxypropylcellulose) (HPC)
[14] = dose: 100.0 mg/kg/injection, schedule: Q01DX009 (ip), vehicle: Klucel (hydroxypropylcellulose) (HPC)
[15] = dose: 200.0 mg/kg/injection, schedule: Q01DX009 (ip), vehicle: Klucel (hydroxypropylcellulose) (HPC)
[16] = dose: 400.0 mg/kg/injection, schedule: Q01DX009 (ip), vehicle: Klucel (hydroxypropylcellulose) (HPC)
[17] = dose: 50.0 mg/kg/injection, schedule: Q01DX009 (ip), vehicle: saline
[18] = dose: 100.0 mg/kg/injection, schedule: Q01DX009 (ip), vehicle: saline
[19] = dose: 100.0 mg/kg/injection, schedule: Q04DX003 (ip), vehicle: saline with Tween-80
[20] = dose: 200.0 mg/kg/injection, schedule: Q04DX003 (ip), vehicle: saline with Tween-80
[21] = dose: 400.0 mg/kg/injection, schedule: Q04DX003 (ip), vehicle: saline with Tween-80
[22] = dose: 100.0 mg/kg/injection, schedule: Q04DX002 (ip), vehicle: saline with Tween-80
[23] = dose: 200.0 mg/kg/injection, schedule: Q04DX002 (ip), vehicle: saline with Tween-80
[24] = dose: 400.0 mg/kg/injection, schedule: Q04DX002 (ip), vehicle: saline with Tween-80

Measured: T/C

CCOc1ccccc1/C=N/Nc1nnc(N/N=C/c2ccccc2OCC)c2ccccc12
inactive: dose: 50.0 mg/kg/injection, schedule: Q01DX001 (ip), vehicle: carboxymethylcellulose (CMC) 91 % of control | [1] 97 % of control | [2] 97 % of control | [3] 91 % of control

CP(=O)(Cc1ccccc1)c1ccccc1 (stereo not drawn)
inactive: dose: 75.0 mg/kg/injection, schedule: Q01DX001 (ip), vehicle: saline 101 % of control | dose: 150.0 mg/kg/injection, schedule: Q01DX001 (ip), vehicle: saline 103 % of control | dose: 300.0 mg/kg/injection, schedule: Q01DX001 (ip), vehicle: saline 103 % of control

CCCCCCCCCCCCCCCC(=O)Nc1ccc(Cl)c(Cl)c1
inactive: dose: 50.0 mg/kg/injection, schedule: Q04DX003 (ip), vehicle: carboxymethylcellulose (CMC) 87 % of control | [1] 89 % of control | dose: 100.0 mg/kg/injection, schedule: Q01DX009 (ip), vehicle: carboxymethylcellulose (CMC) 102 % of control and 89 % of control | [4] 92 % of control and 101 % of control | dose: 100.0 mg/kg/injection, schedule: Q04DX003 (ip), vehicle: carboxymethylcellulose (CMC) 95 % of control | [2] 90 % of control | dose: 200.0 mg/kg/injection, schedule: Q01DX009 (ip), vehicle: carboxymethylcellulose (CMC) 96 % of control and 86 % of control | [5] 93 % of control and 89 % of control | dose: 200.0 mg/kg/injection, schedule: Q04DX003 (ip), vehicle: carboxymethylcellulose (CMC) 87 % of control | dose: 400.0 mg/kg/injection, schedule: Q01DX009 (ip), vehicle: carboxymethylcellulose (CMC) 93 % of control and 86 % of control | [6] 93 % of control and 94 % of control

NC(N)=NC1CCCCC1
inactive: [7] 102 % of control | [8] 112 % of control

O=C(Nc1ccc(CC2=NCCCN2)cc1)c1ccc(C(=O)Nc2ccc(CC3=NCCCN3)cc2)cc1
inactive: dose: 0.5 mg/kg/injection, schedule: Q01DX Z (ip), vehicle: water 95 % of control | dose: 1.0 mg/kg/injection, schedule: Q01DX Z (ip), vehicle: water 103 % of control

NC1CCC(O)CC1 (stereo not drawn)
inactive: [9] 110 % of control | [10] 97 % of control | [11] 97 % of control

O=C(Nc1ccc(O)cc1)Sc1ccccc1
inactive: dose: 75.0 mg/kg/injection, schedule: Q01DX001 (ip), vehicle: gum acacia 107 % of control

S=c1ncn(C2CCCCC2)c(=S)[nH]1
inactive: [12] 95 % of control | [13] 102 % of control

Cc1cc(C)c(S(=O)(=O)CC(Cl)c2ccccc2)c(C)c1 (stereo not drawn)
inactive: dose: 100.0 mg/kg/injection, schedule: Q01DX001 (ip), vehicle: acetone 95 % of control | dose: 100.0 mg/kg/injection, schedule: Q04DX003 (ip), vehicle: acetone 103 % of control | dose: 200.0 mg/kg/injection, schedule: Q01DX001 (ip), vehicle: acetone 97 % of control | dose: 200.0 mg/kg/injection, schedule: Q04DX003 (ip), vehicle: acetone 97 % of control | dose: 400.0 mg/kg/injection, schedule: Q01DX001 (ip), vehicle: acetone 93 % of control | dose: 400.0 mg/kg/injection, schedule: Q04DX003 (ip), vehicle: acetone 97 % of control

O=C(O)CCCCOc1ccccc1
inactive: dose: 75.0 mg/kg/injection, schedule: Q04DX003 (ip), vehicle: saline 97 % of control | dose: 150.0 mg/kg/injection, schedule: Q04DX003 (ip), vehicle: saline 103 % of control

Cc1ccc(NC(=O)Oc2cc(C)ccc2C(C)C)cc1
inactive: [14] 113 % of control | [15] 94 % of control | [16] 97 % of control

Clc1ccc(/C=N/Nc2nc3ccccc3s2)cc1
inactive: dose: 222.0 mg/kg/injection, schedule: Q01DX Z (ip), vehicle: methylcellulose (MC) 97 % of control | dose: 333.0 mg/kg/injection, schedule: Q01DX Z (ip), vehicle: methylcellulose (MC) 101 % of control | dose: 500.0 mg/kg/injection, schedule: Q01DX Z (ip), vehicle: methylcellulose (MC) 91 % of control

CC(=O)OCCSc1ccc(C)cc1
inactive: dose: 100.0 mg/kg/injection, schedule: Q04DX002 (ip), vehicle: Klucel (hydroxypropylcellulose) (HPC) 100 % of control | dose: 200.0 mg/kg/injection, schedule: Q04DX002 (ip), vehicle: Klucel (hydroxypropylcellulose) (HPC) 103 % of control | dose: 400.0 mg/kg/injection, schedule: Q04DX002 (ip), vehicle: Klucel (hydroxypropylcellulose) (HPC) 100 % of control

ClCCN(CCN(CCCl)c1ccccc1)c1ccccc1
inactive: [14] 113 % of control | [15] 108 % of control | [16] 115 % of control

O=C(CCl)NCc1cnccn1
inactive: [17] 95 % of control | [18] 107 % of control | [7] 98 % of control | [8] 104 % of control

Cc1ccc(C)c(NC(=O)N2CCCCC2C)c1 (stereo not drawn)
inactive: [14] 101 % of control | [12] 98 % of control | [15] 101 % of control | dose: 200.0 mg/kg/injection, schedule: Q04DX003 (ip), vehicle: Klucel (hydroxypropylcellulose) (HPC) 102 % of control | [16] 97 % of control | [13] 100 % of control

O=[N+]([O-])c1ccc(CSC2=NCCN2)cc1
inactive: dose: 25.0 mg/kg/injection, schedule: Q01DX009 (ip), vehicle: saline 96 % of control | [17] 104 % of control | [18] 98 % of control

O=C(COc1ccc(Cl)c(Cl)c1)NCc1ccc[n+](Cc2ccc([N+](=O)[O-])cc2)c1
inactive: [19] 89 % of control | [20] 91 % of control | [21] 88 % of control

C1CCC2C3CCC(C3)C2CC1 (stereo not drawn)
inactive: [4] 122 % of control | [5] 92 % of control | [6] 88 % of control

O=C(CCCC(=O)N/N=C/c1ccc2c(c1)OCO2)N/N=C\c1ccc2c(c1)OCO2
inactive: dose: 50.0 mg/kg/injection, schedule: Q01DX001 (ip), vehicle: saline 103 % of control | [9] 103 % of control | [10] 106 % of control | [11] 100 % of control

CN(C(=O)OCc1ccccc1)c1ccc(C(=O)NC(CCC(=O)O)C(=O)O)cc1 (stereo not drawn)
inactive: [1] 94 % of control | [2] 102 % of control | [3] 96 % of control

CC(N)c1ccccc1 (stereo not drawn)
inactive: dose: 100.0 mg/kg/injection, schedule: Q01DX001 (ip), vehicle: saline with Tween-80 95 % of control | dose: 200.0 mg/kg/injection, schedule: Q01DX001 (ip), vehicle: saline with Tween-80 90 % of control

COc1cc(OC)c(N=CN(C)C)cc1Cl
inactive: dose: 25.0 mg/kg/injection, schedule: Q01DX009 (ip), vehicle: Klucel (hydroxypropylcellulose) (HPC) 104 % of control | dose: 50.0 mg/kg/injection, schedule: Q01DX009 (ip), vehicle: Klucel (hydroxypropylcellulose) (HPC) 102 % of control | dose: 75.0 mg/kg/injection, schedule: Q01DX009 (ip), vehicle: Klucel (hydroxypropylcellulose) (HPC) 99 % of control and 105 % of control

CN(N=Nc1ccc(C(N)=O)cc1)C1CCCCC1
inactive: dose: 100.0 mg/kg/injection, schedule: Q01DX001 (ip), vehicle: other 91 % of control | dose: 200.0 mg/kg/injection, schedule: Q01DX001 (ip), vehicle: other 107 % of control

Cc1cc(=O)n(CC(=O)O)c2ccccc12
inactive: dose: 50.0 mg/kg/injection, schedule: Q04DX003 (ip), vehicle: Klucel (hydroxypropylcellulose) (HPC) 88 % of control | [9] 100 % of control | [12] 90 % of control | [10] 100 % of control | [11] 98 % of control

CCOC(=O)CC(CC(=O)OCC)NC(=O)c1ccc(N(C)C(=O)OCc2ccccc2)cc1
inactive: [1] 97 % of control | [2] 100 % of control | [3] 105 % of control

CCCCCCCCCCCOP(=O)(OCC)OCC
inactive: [22] 95 % of control | [23] 95 % of control | [24] 106 % of control

CC(C)=CCCC(C)CCOc1cccc(C)c1 (stereo not drawn)
inactive: [22] 105 % of control | [23] 99 % of control | [24] 89 % of control

Cc1c(Cl)c(C)c(Cl)c(O)c1Cl
inactive: [19] 97 % of control | [20] 96 % of control | [21] 97 % of control
